Drawing on patent US12264159B2, “Functionalized heterocycles as antiviral agents” (Enanta Pharmaceuticals, Inc., priority 2018, dated 2025), this text covers EC50 and CC50 for 25 molecules.

One data set deals with HBV in 2.2.15 cells. The data set can be described thus: 2.2.15 cells: viral product in cell lysates quantified via quantitative real time PCR. It is filed as cell-based, hepatitis B virus (HBV). The note with it: Hepatitis B virus, 120 h, day 5 post treatment, 50% reduction of viral product vs no drug controls, readout (qPCR, HBsAg or HBeAg) not specified for the column. In outline:
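HBV product was measured at day 5 by lysate qPCR or by supernatant HBsAg/HBeAg ELISA, in 2.2.15 cells seeded at 35,000/well and exposed to 5-fold compound dilution series (0.5% DMSO). EC50 is 50% reduction of viral product relative to untreated controls.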
(In general: In qPCR the cycle at which signal appears reflects the starting amount.)

Data set [1] is described as follows: Compound induced cellular toxicity in HepG2 cells, ATPlite 1Step. It is filed as cell-based. The note with it: human, three days exposure, 50% reduction of total ATP vs no drug controls. Here is the method: At day 3, post seeding cells are treated with ATPlite 1Step according to the manufacturer's instructions.
On the technique in general: In ATP-based viability assays light output follows the ATP content of the culture.

Take `CC(C)(C)[C@@H]1Cn2nc(-c3ccc(F)cc3)c(-c3cccc(F)c3)c2-c2cc(=O)c(C(=O)O)cn21` [Example 168, (R)-6-(tert-butyl)-1-(3-fluorophenyl)-2-(4-fluorophenyl)-10-oxo-5,6-dihydro-10H-pyrazolo[1,5-a]pyrido[2,1-c]pyrazine-9-carboxylic acid]: in the data set on HBV in 2.2.15 cells, the EC50 is < 0.1 µM. For the same molecule, the CC50 at 3 days in data set [1] fell in the range of 10 to 25 µM.

In the data set on HBV in 2.2.15 cells, `COc1cccc(-c2cc3n(n2)C[C@@H](C(C)(C)C)n2cc(C(=O)O)c(=O)cc2-3)c1OC` [Example 23, (R)-6-(tert-butyl)-2-(2,3-dimethoxyphenyl)-10-oxo-5,6-dihydro-10H-pyrazolo[1,5-a]pyrido[2,2-c]pyrazine-12-carboxylic acid] came in with an EC50 of 0.2 to 1 µM. In addition, in data set [1], the CC50 at 3 days is > 25 µM.

Turning to `CC(C)(C)[C@@H]1Cn2ncc(-c3ccc(F)cc3)c2-c2cc(=O)c(C(=O)O)cn21` [Example 101, (R)-6-(tert-butyl)-1-(4-fluorophenyl)-10-oxo-5,6-dihydro-10H-pyrazolo[1,5-a]pyrido[2,1-c]pyrazine-9-carboxylic acid], in the data set on HBV in 2.2.15 cells, the EC50 was < 0.1 µM. Further, the CC50 at 3 days in data set [1] was > 25 µM.

Consider `COc1cccc(-c2cc3n(n2)C[C@@H](C(C)(C)C)n2cc(C(=O)O)c(=O)cc2-3)c1` [Example 11, (R)-6-(tert-butyl)-2-(3-methoxyphenyl)-10-oxo-5,6-dihydro-10H-pyrazolo[1,5-a]pyrido[2,2-c]pyrazine-12-carboxylic acid], for which the EC50 in the data set with HBV in 2.2.15 cells was < 0.1 µM. Further, the CC50 at 3 days in data set [1] is > 25 µM.

For `Cn1cc(-c2cc3n(n2)C[C@@H](C(C)(C)C)n2cc(C(=O)O)c(=O)cc2-3)cn1` [Example 5, (R)-6-(tert-butyl)-2-(2-methyl-1H-pyrazol-4-yl)-10-oxo-5,6-dihydro-10H-pyrazolo[1,5-a]pyrido[2,2-c]pyrazine-12-carboxylic acid], in the data set on HBV in 2.2.15 cells, the EC50 was < 0.1 µM. The CC50 at 3 days in data set [1] is > 25 µM.

As for `CC(C)(C)[C@@H]1Cn2ncc(-c3ccccc3)c2-c2cc(=O)c(C(=O)O)cn21` [Example 107, (R)-6-(tert-butyl)-10-oxo-1-phenyl-5,6-dihydro-10H-pyrazolo[1,5-a]pyrido[2,1-c]pyrazine-9-carboxylic acid], the EC50 in the data set on HBV in 2.2.15 cells was < 0.1 µM. Further, in data set [1], the CC50 at 3 days is < 10 µM.

In the case of `Cc1cccc(-c2cnn3c2-c2cc(=O)c(C(=O)O)cn2[C@H](C(C)(C)C)C3)c1` [Example 125, (R)-6-(tert-butyl)-10-oxo-1-(m-tolyl)-5,6-dihydro-10H-pyrazolo[1,5-a]pyrido[2,1-c]pyrazine-9-carboxylic acid], the EC50 in the data set on HBV in 2.2.15 cells is < 0.1 µM. Besides, the CC50 at 3 days in data set [1] is > 25 µM.

In the data set on HBV in 2.2.15 cells, `COc1cccc(C(N)=O)c1-c1cc2n(n1)C[C@@H](C(C)(C)C)n1cc(C(=O)O)c(=O)cc1-2` [Example 52, (R)-6-(tert-butyl)-2-(2-carbamoyl-6-methoxyphenyl)-10-oxo-5,6-dihydro-10H-pyrazolo[1,5-a]pyrido[2,2-c]pyrazine-12-carboxylic acid] showed an EC50 of 0.2 to 1 µM. Further, the CC50 at 3 days in data set [1] was > 25 µM.

Take `CC(C)(C)[C@@H]1Cn2nc(-c3cccc4nsnc34)cc2-c2cc(=O)c(C(=O)O)cn21` [Example 63, (R)-2-(benzo[c][1,2,5]thiadiazol-4-yl)-6-(tert-butyl)-10-oxo-5,6-dihydro-10H-pyrazolo[1,5-a]pyrido[2,2-c]pyrazine-12-carboxylic acid]: in the data set with HBV in 2.2.15 cells, the EC50 was < 0.1 µM. Also, in data set [1], the CC50 at 3 days was > 25 µM.

As for `COc1ccc(-c2cc3n(n2)C[C@@H](C(C)(C)C)n2cc(C(=O)O)c(=O)cc2-3)cc1` [Example 10, (R)-6-(tert-butyl)-2-(4-methoxyphenyl)-10-oxo-5,6-dihydro-10H-pyrazolo[1,5-a]pyrido[2,2-c]pyrazine-12-carboxylic acid], the EC50 in the data set on HBV in 2.2.15 cells was < 0.1 µM. Moreover, in data set [1], the CC50 at 3 days is > 25 µM.

For the molecule `CCOc1cc(F)ccc1-c1cc2n(n1)C[C@@H](C(C)(C)C)n1cc(C(=O)O)c(=O)cc1-2` [Example 72, (R)-6-(tert-butyl)-2-(2-ethoxy-4-fluorophenyl)-10-oxo-5,6-dihydro-10H-pyrazolo[1,5-a]pyrido[2,2-c]pyrazine-12-carboxylic acid], the EC50 in the data set with HBV in 2.2.15 cells was < 0.1 µM. For the same molecule, in data set [1], the CC50 at 3 days was > 25 µM.

Consider `CC(C)(C)[C@@H]1Cn2nc(-c3ccc(Cl)cc3)cc2-c2cc(=O)c(C(=O)O)cn21` [Example 13, (R)-6-(tert-butyl)-2-(4-chlorophenyl)-10-oxo-5,6-dihydro-10H-pyrazolo[1,5-a]pyrido[2,2-c]pyrazine-12-carboxylic acid], for which the EC50 with HBV in 2.2.15 cells was < 0.1 µM. Also, the CC50 at 3 days in data set [1] was > 25 µM.

`CC(C)[C@@H]1Cn2nc(C3CC3)c(-c3ccsc3)c2-c2cc(=O)c(C(=O)O)cn21` [Example 128, (R)-2-cyclopropyl-6-isopropyl-10-oxo-1-(thiophen-3-yl)-5,6-dihydro-10H-pyrazolo[1,5-a]pyrido[2,1-c]pyrazine-9-carboxylic acid]: the EC50 in the data set with HBV in 2.2.15 cells is < 0.1 µM. In data set [1], the CC50 at 3 days was > 25 µM.

For `CCOc1ccccc1-c1cc2n(n1)C[C@@H](C(C)(C)C)n1cc(C(=O)O)c(=O)cc1-2` [Example 48, (R)-6-(tert-butyl)-2-(2-ethoxyphenyl)-10-oxo-5,6-dihydro-10H-pyrazolo[1,5-a]pyrido[2,2-c]pyrazine-12-carboxylic acid], in the data set with HBV in 2.2.15 cells, the EC50 was < 0.1 µM. Besides, in data set [1], the CC50 at 3 days was > 25 µM.

Turning to `COc1cccc(-c2c(C3CC3)nn3c2-c2cc(=O)c(C(=O)O)cn2[C@H](C(C)(C)C)C3)c1` [Example 157, (R)-6-(tert-butyl)-2-cyclopropyl-1-(3-methoxyphenyl)-10-oxo-5,6-dihydro-10H-pyrazolo[1,5-a]pyrido[2,1-c]pyrazine-9-carboxylic acid], the EC50 with HBV in 2.2.15 cells was < 0.1 µM. In addition, in data set [1], the CC50 at 3 days was > 25 µM.

In the case of `CC(C)[C@@H]1Cn2nc(-c3ccc(O)cc3)c(-c3ccc(O)cc3)c2-c2c(F)c(=O)c(C(=O)O)cn21` [Example 191, (R)-11-fluoro-1,2-bis(4-hydroxyphenyl)-6-isopropyl-10-oxo-5,6-dihydro-10H-pyrazolo[1,5-a]pyrido[2,1-c]pyrazine-9-carboxylic acid], the concentration for a half-maximal effect (EC50) in the data set on HBV in 2.2.15 cells is < 0.1 µM. For the same molecule, the CC50 at 3 days in data set [1] is > 25 µM.

On to `Cc1ccccc1-c1cnn2c1-c1cc(=O)c(C(=O)O)cn1[C@H](C(C)(C)C)C2` [Example 127, (R)-6-(tert-butyl)-10-oxo-1-(o-tolyl)-5,6-dihydro-10H-pyrazolo[1,5-a]pyrido[2,1-c]pyrazine-9-carboxylic acid], for which, in the data set with HBV in 2.2.15 cells, the EC50 was < 0.1 µM. In addition, the CC50 at 3 days in data set [1] was > 25 µM.

For `CC(C)[C@@H]1Cn2nc(-c3ccccc3)c(-c3ccccc3)c2-c2cc(=O)c(C(=O)O)cn21` [Example 179, (R)-6-isopropyl-10-oxo-1,2-diphenyl-5,6-dihydro-10H-pyrazolo[1,5-a]pyrido[2,1-c]pyrazine-9-carboxylic acid], in the data set with HBV in 2.2.15 cells, the concentration giving a half-maximal response (EC50) is < 0.1 µM. In data set [1], the CC50 at 3 days is > 25 µM.

As for `CCOc1ccc(OC)cc1-c1cc2n(n1)C[C@@H](C(C)(C)C)n1cc(C(=O)O)c(=O)cc1-2` [Example 37, (R)-6-(tert-butyl)-2-(2-ethoxy-5-methoxyphenyl)-10-oxo-5,6-dihydro-10H-pyrazolo[1,5-a]pyrido[2,2-c]pyrazine-12-carboxylic acid], the EC50 with HBV in 2.2.15 cells is < 0.1 µM. Further, the CC50 at 3 days in data set [1] is > 25 µM.

As for `Cc1sccc1-c1c(C2CC2)nn2c1-c1cc(=O)c(C(=O)O)cn1[C@H](C(C)(C)C)C2` [Example 160, (R)-6-(tert-butyl)-2-cyclopropyl-1-(2-methylthiophen-3-yl)-10-oxo-5,6-dihydro-10H-pyrazolo[1,5-a]pyrido[2,1-c]pyrazine-9-carboxylic acid], the EC50 in the data set on HBV in 2.2.15 cells is < 0.1 µM. Besides, the CC50 at 3 days in data set [1] is > 25 µM.

As to `CC(C)(C)[C@@H]1Cn2nc(-c3ccc(F)cc3)c(-c3ccccc3F)c2-c2cc(=O)c(C(=O)O)cn21` [Example 169, (R)-6-(tert-butyl)-1-(2-fluorophenyl)-2-(4-fluorophenyl)-10-oxo-5,6-dihydro-10H-pyrazolo[1,5-a]pyrido[2,1-c]pyrazine-9-carboxylic acid], the EC50 in the data set on HBV in 2.2.15 cells was < 0.1 µM. In data set [1], the CC50 at 3 days lay in the range of 10 to 25 µM.

`CCOc1cccc(F)c1-c1cc2n(n1)C[C@@H](C(C)(C)C)n1cc(C(=O)O)c(=O)cc1-2` [Example 74, (R)-6-(tert-butyl)-2-(2-ethoxy-6-fluorophenyl)-10-oxo-5,6-dihydro-10H-pyrazolo[1,5-a]pyrido[2,2-c]pyrazine-12-carboxylic acid]: the EC50 in the data set on HBV in 2.2.15 cells was < 0.1 µM. Also, the CC50 at 3 days in data set [1] is > 25 µM.

Turning to `COc1cccc(-c2cnn3c2-c2cc(=O)c(C(=O)O)cn2[C@H](C(C)(C)C)C3)c1` [Example 113, (R)-6-(tert-butyl)-1-(3-methoxyphenyl)-10-oxo-5,6-dihydro-10H-pyrazolo[1,5-a]pyrido[2,1-c]pyrazine-9-carboxylic acid], in the data set on HBV in 2.2.15 cells, the 50% effective concentration (EC50) is < 0.1 µM. The 50% cytotoxic concentration (CC50) at 3 days in data set [1] is > 25 µM.

As to `CC(C)(C)[C@@H]1Cn2nc(C3CC3)c(-c3cccc(F)c3)c2-c2cc(=O)c(C(=O)O)cn21` [Example 147, (R)-6-(tert-butyl)-2-cyclopropyl-1-(3-fluorophenyl)-10-oxo-5,6-dihydro-10H-pyrazolo[1,5-a]pyrido[2,1-c]pyrazine-9-carboxylic acid], the EC50 with HBV in 2.2.15 cells is < 0.1 µM. Also, in data set [1], the CC50 at 3 days is > 25 µM.

Take `CC(C)(C)[C@@H]1Cn2ncc(-c3ccc(F)cc3F)c2-c2cc(=O)c(C(=O)O)cn21` [Example 100, (R)-6-(tert-butyl)-1-(2,4-difluorophenyl)-10-oxo-5,6-dihydro-10H-pyrazolo[1,5-a]pyrido[2,1-c]pyrazine-9-carboxylic acid]: the EC50 in the data set on HBV in 2.2.15 cells is < 0.1 µM. Further, the 50% cytotoxic concentration (CC50) at 3 days in data set [1] was > 25 µM.

As usually defined, the EC50 is the concentration at which the effect is half-maximal. A low value points to greater potency. Broadly, the CC50 is the concentration that lowers cell viability or growth by half. Higher therefore signals lower toxicity to the cells.
